Measurements reported in US20070219203A1, “Arylalkylamino-substituted quinazoline analogues” (Neurogen Corporation, priority 2004, published 2007).

Each molecule was assayed against T1, human capsaicin receptor (Homo sapiens, UniProt Q8NER1) (assay: Calcium mobilization assay, antagonist activity (Example 6)). Settings: Table I; 50% decrease in fluorescence response of cells expressing human capsaicin receptor exposed to capsaicin.
T1 construct: expressed in transfected cells
Format: cell-based
Method: A cDNA encoding full length human capsaicin receptor (SEQ ID NO:1, 2 or 3 of U.S. Pat. No. 6,482,611) is subcloned in the plasmid pBK-CMV (Stratagene, La Jolla, Calif.) for recombinant expression in mammalian cells.
Human embryonic kidney (HEK293) cells are transfected with the pBK-CMV expression construct encoding the full length human capsaicin receptor using standard methods. The transfected cells are selected for two weeks in media containing G418 (400 μg/ml) to obtain a pool of stably transfected cells. Independent clones are isolated from this pool by limiting dilution to obtain clonal stable cell lines for use in subsequent experiments.
Cells transfected with expression plasmids (as described in Example 4) and thereby expressing human capsaicin receptor are seeded and grown to 70-90% confluency in FALCON black-walled, clear-bottomed 96-well plates (#3904, BECTON-DICKINSON, Franklin Lakes, N.J.). The culture medium is emptied from the 96 well plates and […] calcium sensitive dye (Molecular Probes, Eugene, Oreg.) is added to each well (dye solution: 1 mg […], 440 μL DMSO and 440 μl 20% pluronic acid in DMSO, diluted 1:250 in Krebs-Ringer HEPES (KRH) buffer (25 mM HEPES, 5 mM KCl, 0.96 mM NaH2PO4, 1 mM MgSO4, 2 mM CaCl2, 5 mM glucose, 1 mM probenecid, pH 7.4), 50 μl diluted solution per well). Plates are covered with aluminum foil and incubated at 37° C. for 1-2 hours in an environment containing 5% CO2. After the incubation, the dye is emptied from the plates, and the cells are washed once with KRH buffer, and resuspended in KRH buffer.
To measure the ability of a test compound to agonize or antagonize a calcium mobilization response in cells expressing capsaicin receptors to capsaicin or other vanilloid agonist, the EC50 of the agonist capsaicin is first determined. An additional 20 μl of KRH buffer and 1 μl DMSO is added to each well of cells, prepared as described above. 100 μl capsaicin in KRH buffer is automatically transferred by the FLIPR instrument to each well. Capsaicin-induced calcium mobilization is monitored using either FLUOROSKAN ASCENT (Labsystems; Franklin, Mass.) or FLIPR (fluorometric imaging plate reader system; Molecular Devices, Sunnyvale, Calif.) instruments. Data obtained between 30 and 60 seconds after agonist application are used to generate an 8-point concentration response curve, with final capsaicin concentrations of 1 nM to 3 μM. KALEIDAGRAPH software (Synergy Software, Reading, Pa.) is used to fit the data to the equation: y=a*(1/(1+(b/x)^c)) to determine the 50% excitatory concentration (EC50) for the response. In this equation, y is the maximum fluorescence signal, x is the concentration of the agonist or antagonist (in this case, capsaicin), a is the Emax, b corresponds to the EC50 value and c is the Hill coefficient. Determination of Agonist Activity
Test compounds are dissolved in DMSO, diluted in 20 μl KRH buffer so that the final concentration of test compounds in the assay well is between 1 μM and 5 μM, and added to cells prepared as described above. The 96 well plates containing prepared cells and test compounds are incubated in the dark, at room temperature for 0.5 to 6 hours. It is important that the incubation not continue beyond 6 hours. Just prior to determining the fluorescence response, 100 μl capsaicin in KRH buffer at twice the EC50 concentration determined as described above is automatically added by the FLIPR instrument to each well of the 96 well plate for a final sample volume of 200 μl and a final capsaicin concentration equal to the EC50. The final concentration of test compounds in the assay wells is between 1 μM and 5 μM. […] The concentration of antagonist required to provide a 50% decrease, relative to the response observed in the presence of capsaicin and without antagonist, is the IC50 for the antagonist, and is preferably below 1 micromolar, 100 nanomolar, 10 nanomolar or 1 nanomolar.

T1 sequence (Q8NER1 whole entry): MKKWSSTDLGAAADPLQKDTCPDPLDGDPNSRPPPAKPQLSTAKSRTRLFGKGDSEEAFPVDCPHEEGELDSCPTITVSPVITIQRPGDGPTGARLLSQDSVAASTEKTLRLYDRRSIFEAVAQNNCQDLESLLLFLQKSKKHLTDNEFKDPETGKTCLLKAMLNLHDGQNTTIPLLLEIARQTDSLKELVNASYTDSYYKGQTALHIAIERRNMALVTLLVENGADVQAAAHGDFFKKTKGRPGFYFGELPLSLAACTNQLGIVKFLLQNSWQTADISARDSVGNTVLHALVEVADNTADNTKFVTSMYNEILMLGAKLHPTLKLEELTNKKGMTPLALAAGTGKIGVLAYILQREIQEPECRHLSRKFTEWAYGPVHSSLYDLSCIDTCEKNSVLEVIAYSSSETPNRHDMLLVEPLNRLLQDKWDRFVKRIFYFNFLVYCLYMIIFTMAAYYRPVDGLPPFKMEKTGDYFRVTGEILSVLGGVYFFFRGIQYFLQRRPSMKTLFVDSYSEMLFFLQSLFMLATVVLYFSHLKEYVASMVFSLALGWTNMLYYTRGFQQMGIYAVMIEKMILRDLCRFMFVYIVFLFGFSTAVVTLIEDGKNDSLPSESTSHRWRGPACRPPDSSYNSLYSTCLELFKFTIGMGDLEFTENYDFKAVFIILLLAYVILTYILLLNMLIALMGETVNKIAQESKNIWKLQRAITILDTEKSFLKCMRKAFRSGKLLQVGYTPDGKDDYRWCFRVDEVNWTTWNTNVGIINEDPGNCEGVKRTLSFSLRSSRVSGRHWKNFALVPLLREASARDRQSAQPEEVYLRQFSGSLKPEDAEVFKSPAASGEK

IC50, ≤ 1 µM:
Cc1ccccc1CCNc1nc(COCC(C)C)nc2nc(-c3ncccc3Cl)ccc12 [Compound 58, 7-(3-chloropyridin-2-yl)-2-(isobutoxymethyl)-N-[2-(2-methylphenyl)ethyl]pyrido[2,3-d]pyrimidin-4-amine]
CC(C)COCc1nc(NC(=O)Cc2ccc(F)cc2)c2ccc(-c3ncccc3C(F)(F)F)nc2n1 [Compound 59, 2-(4-fluorophenyl)-N-{2-(isobutoxymethyl)-7-[3-(trifluoromethyl)pyridin-2-yl]pyrido[2,3-d]pyrimidin-4-yl}acetamide]
CC(C)COCc1nc(NCC(=O)c2cccc(Cl)c2)c2ccc(-c3ncccc3C(F)(F)F)nc2n1 [Compound 60, 1-(3-chlorophenyl)-2-({2-(isobutoxymethyl)-7-[3-(trifluoromethyl)pyridin-2-yl]pyrido[2,3-d]pyrimidin-4-yl}amino)ethanone]
CC(C)COCc1nc(NC2Cc3ccccc3C2)c2ccc(-c3ncccc3Cl)nc2n1 [Compound 61, 7-(3-chloropyridin-2-yl)-N-(2,3-dihydro-1H-inden-2-yl)-2-(isobutoxymethyl)pyrido[2,3-d]pyrimidin-4-amine]
CCOCc1nc(NC2Cc3ccccc3C2)c2ccc(-c3ncccc3Cl)nc2n1 [Compound 62, 7-(3-chloropyridin-2-yl)-N-(2,3-dihydro-1H-inden-2-yl)-2-(ethoxymethyl)pyrido[2,3-d]pyrimidin-4-amine]

Same assay, conditions: Table II; 50% decrease in fluorescence response of cells expressing human capsaicin receptor exposed to capsaicin

IC50, ≤ 1 µM:
FC(F)(F)c1cccnc1-c1ccc2c(NCCCc3ccccc3)ncnc2c1 [Compound 63, (3-Phenyl-propyl)-[7-(3-trifluoromethyl-pyridin-2-yl)-quinazolin-4-yl]-amine]
Cc1ccc(CCNc2ncnc3cc(-c4ncccc4C(F)(F)F)ccc23)cc1 [Compound 64, (2-p-Tolyl-ethyl)-[7-(3-trifluoromethyl-pyridin-2-yl)-quinazolin-4-yl]-amine]
Cc1ccccc1CCNc1ncnc2cc(-c3ncccc3C(F)(F)F)ccc12 [Compound 65, (2-o-Tolyl-ethyl)-[7-(3-trifluoromethyl-pyridin-2-yl)-quinazolin-4-yl]-amine]
Cc1cccc(CCNc2ncnc3cc(-c4ncccc4C(F)(F)F)ccc23)c1 [Compound 66, (2-m-Tolyl-ethyl)-[7-(3-trifluoromethyl-pyridin-2-yl)-quinazolin-4-yl]-amine]
CCC(CNc1ncnc2cc(-c3ncccc3C(F)(F)F)ccc12)c1ccccc1 (stereo not shown) [Compound 68, (2-Phenyl-butyl)-[7-(3-trifluoromethyl-pyridin-2-yl)-quinazolin-4-yl]-amine]
CCCC(CNc1ncnc2cc(-c3ncccc3C(F)(F)F)ccc12)c1ccccc1 (stereo not shown) [Compound 69, (2-Phenyl-pentyl)-[7-(3-trifluoromethyl-pyridin-2-yl)-quinazolin-4-yl]-amine]
CCCCC(CNc1ncnc2cc(-c3ncccc3C(F)(F)F)ccc12)c1ccccc1 (stereo not shown) [Compound 70, (2-Phenyl-hexyl)-[7-(3-trifluoromethyl-pyridin-2-yl)-quinazolin-4-yl]-amine]
CC(C)CC(CNc1ncnc2cc(-c3ncccc3C(F)(F)F)ccc12)c1ccccc1 (stereo not shown) [Compound 72, (4-Methyl-2-phenyl-pentyl)-[7-(3-trifluoromethyl-pyridin-2-yl)-quinazolin-4-yl]-amine]
CCCCCC(CNc1ncnc2cc(-c3ncccc3C(F)(F)F)ccc12)c1ccccc1 (stereo not shown) [Compound 73, (2-Phenyl-heptyl)-[7-(3-trifluoromethyl-pyridin-2-yl)-quinazolin-4-yl]-amine]
FC(F)(F)c1cccnc1-c1ccc2c(NC3Cc4ccccc4C3)ncnc2c1 [Compound 76, Indan-2-yl-[7-(3-trifluoromethyl-pyridin-2-yl)-quinazolin-4-yl]-amine]
FC(F)(F)c1cccnc1-c1ccc2c(NC3CCc4ccccc4C3)ncnc2c1 (stereo not shown) [Compound 77, (1,2,3,4-Tetrahydro-naphthalen-2-yl)-[7-(3-trifluoromethyl-pyridin-2-yl)-quinazolin-4-yl]-amine]
FC(F)(F)c1cccnc1-c1ccc2c(NC3CCc4ccccc43)ncnc2c1 (stereo not shown) [Compound 78, Indan-1-yl-[7-(3-trifluoromethyl-pyridin-2-yl)-quinazolin-4-yl]-amine]
FC(F)(F)c1cccnc1-c1ccc2c(N[C@H]3CCCc4ccccc43)ncnc2c1 [Compound 81, (1,2,3,4-Tetrahydro-naphthalen-1-yl)-[7-(3-trifluoromethyl-pyridin-2-yl)-quinazolin-4-yl]-amine]
FC(F)(F)c1cccnc1-c1ccc2c(NCCc3ccccc3)nc(CN3CCSCC3)nc2c1 [Compound 97, Phenethyl-[2-thiomorpholin-4-ylmethyl-7-(3-trifluoromethyl-pyridin-2-yl)-quinazolin-4-yl]-amine]
CC1(C)CCCN(Cc2nc(NCCc3ccccc3)c3ccc(-c4ncccc4C(F)(F)F)cc3n2)C1 [Compound 100, [2(3,3-Dimethyl-piperidin-1-ylmethyl)-7-(3-trifluoromethyl-pyridin-2-yl)-quinazolin-4-yl]-phenethyl-amine]
FC(F)(F)c1cccnc1-c1ccc2c(NCCc3ccccc3)nc(CN3CCCCCCC3)nc2c1 [Compound 103, [2-Azocan-1-ylmethyl-7-(3-trifluoromethyl-pyridin-2-yl)-quinazolin-4-yl]-phenethyl-amine]
CC1CCN(Cc2nc(NCCc3ccccc3)c3ccc(-c4ncccc4C(F)(F)F)cc3n2)CC(C)(C)C1 (stereo not shown) [Compound 106, Phenethyl-[7-(3-trifluoromethyl-pyridin-2-yl)-2-(3,3,5-trimethyl-azepan-1-ylmethyl)-quinazolin-4-yl]-amine]
Cc1ccccc1CCNc1nc(CN2CCC(C)CC(C)(C)C2)nc2cc(-c3ncccc3C(F)(F)F)ccc12 (stereo not shown) [Compound 107, (2-o-Tolyl-ethyl)-[7-(3-trifluoromethyl-pyridin-2-yl)-2-(3,3,5-trimethyl-azepan-1-ylmethyl)quinazolin-4-yl]-amine]
Cc1ccccc1CCNc1nc(CN2CCC3(CC2)OCCO3)nc2cc(-c3ncccc3C(F)(F)F)ccc12 [Compound 110, [2-(1,4-Dioxa-8-aza-spiro[4.5]dec-8-ylmethyl)-7-(3-trifluoromethyl-pyridin-2-yl)-quinazolin-4-yl]-(2-o-tolyl-ethyl)-amine]
C=CCN(CC=C)Cc1nc(NCCc2ccccc2)c2ccc(-c3ncccc3C(F)(F)F)cc2n1 [Compound 130, [2-Diallylaminomethyl-7-(3-trifluoromethyl-pyridin-2-yl)-quinazolin-4-yl]-phenethyl-amine]
CCCN(Cc1nc(NCCc2ccccc2C)c2ccc(-c3ncccc3C(F)(F)F)cc2n1)CC1CC1 [Compound 140, [2-[(Cyclopropylmethyl-propyl-amino)-methyl]-7-(3-trifluoromethyl-pyridin-2-yl)-quinazolin-4-yl]-(2-o-tolyl-ethyl)-amine]
CCCCN(CCCC)Cc1nc(NCCc2ccccc2)c2ccc(-c3ncccc3C(F)(F)F)cc2n1 [Compound 145, [2-Dibutylaminomethyl-7-(3-trifluoromethyl-pyridin-2-yl)-quinazolin-4-yl]-phenethyl-amine]
CCCCN(CCCC)Cc1nc(NCCc2ccccc2C)c2ccc(-c3ncccc3C(F)(F)F)cc2n1 [Compound 146]
